What was measured:
[1] = tested on: Hep3b2.1-7 tumours; assay: orthotopic Hep3b2.1-7 human liver cancer model; assay type: in vivo, mice
Description: In the orthotopic Hep3b2.1-7 human liver cancer model, treatment of mice (n=10) began 14 days after inoculation of 2.5 × 10^6 cells. […] To initiate tumour xenografts, MDA-MB-231, PC3, Cal27 and HepG2 cells were injected s.c. into nude mice (n=8) at 4, 5, 2 and 2 × 10^7 cells ml^−1, respectively. […] In the B16F0 lung metastasis model, 2 × 10^5 cells were injected via the tail vein of C57Bl6 mice (n=8). […] Surface lung macrometastases were counted for each group (n=9) upon study termination. In the intrasplenic HT-29 xenograft model, 1 × 10^6 cells in 100 μl were injected into the spleen. […] Solid tumours were measured in two dimensions (length and width) and the tumour volume (cm^3) was calculated using the equation: V=length × width^2 × π/6. The anti-tumour activity was expressed as percent tumour growth inhibition (%TGI). Further details are available in Supplementary Methods. […]
In the Hep3b2.1-7 model, the cells resuspended in HBSS:MatrigelTM (1:1, v/v) to a final concentration of 5 x 10^8 cells/mL were inoculated following an incision into the skin directly over the liver to expose the main lobe of the liver. The needle was introduced into the main lobe of the liver, where 2.5 x 106 Hep3b2.1-7 cells (in 5 µL with 50% Matrigel) were discharged. The treatment of mice began 24 days after inoculation of the […]
either a once or twice weekly dosing schedule (see figure legends for dose schedules in each study) for up to three weeks. […]
efficacy/PK study) using either a once or twice weekly dosing schedule (see figure legends for dose schedules in each study) for up to three weeks. […]
In relevant models, solid tumours were measured in two dimensions (length and width) and the tumour volume (mm3) calculated using the equation V = length × width2 × π/6.The anti-tumour activity was assessed by the comparison of the mean tumour volume of the treated groups to the mean tumour volume of the control group and expressed as the percent Tumour Growth Inhibition (TGI) using the equation:
%TGI = (1-((VendPG545 - VstartPG545) / (VendControl - VstartControl)))*100 VendPG545 = Ending Tumour Volume of PG545-treated animal
VstartPG545 = Starting Tumour Volume of PG545-treated animal
VendControl = Ending Tumour Volume of Control animal
VstartControl = Starting Tumour Volume of Control animal […]
After collection, 0.2 mL of […]
whole blood was added to a glass scintillation vial to which 1 mL Solvable was added.
Samples were incubated for one hour at 55-60°C. 0.1 mL of 0.1 M EDTA-di-sodium salt solution and 0.3 mL to 0.5 mL of 30% hydrogen peroxide in 0.1 mL aliquots were added to the sample. Samples were gently agitated between additions to allow reaction foaming to subside. Samples were incubated for 30 minutes at room temperature. […]

[2] = plasma pharmacokinetics of PG545 (LC-MS/MS) in LL/2 tumour-bearing mice; assay type: in vivo; conditions: for AUC0−t / Cmax / Tmax / t½: plasma
Description: (Applied Biosystems) preceded by a Spark Symbiosis Direct On-line Solid Phase Extraction system. Briefly, using a deep-well 96-well plate, 100 µL plasma was mixed with 10 µL standard solution (or water for unknowns) plus 10 µL internal standard solution (PG562 at 100 µg/mL (deionised water for double blank)).This was then mixed for at least 1 min (Ratek Platform Shaker) and incubated at room temperature for 20 mins prior to addition of 25 µL SDS solution (10 mg SDS in 1 mL deionised water) + 75 µL CHAPS solution (50 mg CHAPS in 1 mL deionised water) and 50 µL Proteinase K solution (10 mg Proteinase K in 1 mL 5 mM CaCl2). Following a mixing step this was incubated at 37°C for 2.5 hours prior to addition of 250 µL deionised water and placed into the Spark Symbiosis system.
The Tmax and Cmax on each sampling day were determined for each dose level by visual inspection of the mean data. The AUC0-t was calculated using the trapezoidal method and the plasma concentration t½ was estimated based on linear regression of the natural log of the plasma concentration that constituted the terminal phase of the concentration-time

For `CC(C)CCC[C@@H](C)[C@H]1CCC2C3CCC4C[C@@H](O[C@@H]5O[C@H](COS(=O)(=O)[O-])[C@@H](O[C@H]6O[C@H](COS(=O)(=O)[O-])[C@@H](O[C@H]7O[C@H](COS(=O)(=O)[O-])[C@@H](O[C@H]8O[C@H](COS(=O)(=O)[O-])[C@@H](OS(=O)(=O)[O-])[C@H](OS(=O)(=O)[O-])[C@H]8OS(=O)(=O)[O-])[C@H](OS(=O)(=O)[O-])[C@H]7OS(=O)(=O)[O-])[C@H](OS(=O)(=O)[O-])[C@H]6OS(=O)(=O)[O-])[C@H](OS(=O)(=O)[O-])[C@H]5OS(=O)(=O)[O-])CC[C@]4(C)C3CC[C@@]21C.[Na+].[Na+].[Na+].[Na+].[Na+].[Na+].[Na+].[Na+].[Na+].[Na+].[Na+].[Na+].[Na+]` (stereo partly shown) [PG545], the TGI ([1]; 20 mg kg^−1 loading dose then 10 mg kg^−1 twice-weekly) was 55%, the TGI ([1]; 20 mg kg^−1 twice-weekly s.c.) was 52% and the TGI ([1]; once-weekly 20 mg kg^−1 followed by 10 mg kg^−1) was 65%. The “start of efficacious plasma concentration range” value ([2]; LL/2 model) was ~20 µg/mL, the “AUC0−t” value ([2]; week 1, 20 mg kg^−1) was 687 µg·h/mL and the Cmax ([2]; week 1, 20 mg kg^−1) was 23 µg/mL. The Tmax ([2]; week 1, 20 mg kg^−1) was 5 h, the t½ ([2]; week 1, 20 mg kg^−1) was 38 h and the “AUC0−t” value ([2]; week 1, 40 mg kg^−1) was 1713 µg·h/mL. The Cmax ([2]; week 1, 40 mg kg^−1) was 55 µg/mL, the Tmax ([2]; week 1, 40 mg kg^−1) was 3 h and the t½ ([2]; week 1, 40 mg kg^−1) was 32 h. The “AUC0−t” value ([2]; week 1, 60 mg kg^−1) was 2666 µg·h/mL, the Cmax ([2]; week 1, 60 mg kg^−1) was 79 µg/mL and the Tmax ([2]; week 1, 60 mg kg^−1) was 5 h. The t½ ([2]; week 1, 60 mg kg^−1) was 39 h, the “AUC0−t” value ([2]; week 2, 20 mg kg^−1) was 663 µg·h/mL and the Cmax ([2]; week 2, 20 mg kg^−1) was 27 µg/mL. The Tmax ([2]; week 2, 20 mg kg^−1) was 4 h, the t½ ([2]; week 2, 20 mg kg^−1) was 31 h and the “AUC0−t” value ([2]; week 2, 40 mg kg^−1) was 1781 µg·h/mL. The Cmax ([2]; week 2, 40 mg kg^−1) was 71 µg/mL, the Tmax ([2]; week 2, 40 mg kg^−1) was 4 h and the t½ ([2]; week 2, 40 mg kg^−1) was 28 h. For the same compound, the “AUC0−t” value ([2]; week 2, 60 mg kg^−1) was 3056 µg·h/mL, the Cmax ([2]; week 2, 60 mg kg^−1) was 94 µg/mL and the Tmax ([2]; week 2, 60 mg kg^−1) was 4 h. It also gave a t½ ([2]; week 2, 60 mg kg^−1) of 35 h.
